Values after ≈ are worked out from the molar mass of the structure shown.
Assay: Toxicity against Artemia salina by lethality assay
Format: organism-based
Settings: in vivo, read-out: LD50 (the source's name)
C/C(=C/C(=O)/C=C(\C)CCCc1ccoc1)CCCc1ccoc1 gave an LC50 of 0.09 µg/mL (≈ 0.276 µM).
Compound CC(=O)O[C@@H]1OCC2=CC[C@H]3[C@]4(C)CC[C@H]5C(C)(C)CCC[C@]5(C)[C@H]4C[C@H](OC(C)=O)[C@]3(C)[C@H]21 [DEOXOSCALARIN ACETATE] has an LC50 of 190 µg/mL.
In the case of CC(=O)O[C@H]1C[C@@H]2[C@@]3(C)CCCC(C)(C)[C@@H]3CC[C@@]2(C)[C@@H]2CCc3cocc3[C@@]12C, the LC50 is reported as 180 µg/mL (≈ 436 µM).
With C/C(=C/C(=O)/C=C(/C)CCCc1ccoc1)CCCc1ccoc1 the LC50 was 0.45 µg/mL (≈ 1.38 µM).
CC(=O)O[C@H]1C[C@H]2[C@]3(C)CCCC(C)(C)[C@H]3CC[C@]2(C)[C@H]2CC=C3CO[C@H](O)[C@H]3[C@]12C gave an LC50 of 200 µg/mL (≈ 464 µM).
C/C(=C\C(=O)C/C(C)=C/CCc1ccoc1)CCCc1ccoc1 [FUROSPONGIN 2] gave an LC50 of 0.12 µg/mL (≈ 0.368 µM).
In the case of C/C(=C\C(=O)/C=C(\C)CCCc1ccoc1)CCCc1ccoc1, the LC50 is reported as 1.6 µg/mL (≈ 4.9 µM).

— ChEMBL document CHEMBL1147321, “Terpenoids from the North Adriatic Sponge Spongia officinalis” (J Nat Prod, 1989)
